Experimental data from patent US6703413B2 (Rhode Island Hospital, priority 1999, dated 2004).
Read-outs that look alike come from different tables or passages of the source.

Key:
3T3 cells = assay: DNA fragmentation, agarose-gel electrophoresis; assay type: cell-based; details: identical regimen, 50 μM
[1] = tested on: human ovarian tumor cells; assay: Growth of established tumor cell colonies in vitro; assay type: cell-based; details: 24-hour exposure to 50 μM
Procedure: Parallel studies were carried out to assess whether disruption of cell adhesion played a role in the cytotoxic activity.

[2] = tested on: HL-60 human promyelocytic cell line; assay: Apoptosis induction in non-adherent cancer cells; assay type: cell-based
[3] = Taurolidine-induced toxicity, 3 d i.p. bolus injection regimen; assay type: in vivo; details: for mortality (%): i.p., 3 consecutive days
Procedure: Control animals received 1 ml injections of 5% Kollidon 17 PF alone. Animals were examined daily and body weight recorded twice weekly. A reduction in body weight of greater than 10% was considered significant. The maximally tolerated dose (MTD) was considered to be the dose which produced ˜10% mortality.
During the injection regimen, and daily thereafter for 30 d, mice were weighed and examined. Experiments were repeated a minimum of three times and mortality and weight loss data pooled.

[4] = tested on: SKOV3 human ovarian tumor cell line; assay: Mouse model of recurrent ovarian cancer, intraperitoneal lavage; assay type: in vivo, Holland Sprague-Dawley mice; details: i.p. lavage from 5 days after 5×10^6 tumor cells, 3 times a day for 4 days, 30 mg/day
Procedure: Holland Sprague-Dawley mice were injected with 5×10^6 tumor cells (e.g., SKOV3 human ovarian tumor cell line) to mimic a condition of advanced ovarian cancer. […] At least a 75-80% reduction in tumor foci was observed.

[5] = tested on: SKOV-3 human ovarian tumor xenografts; assay: Therapeutic effectiveness against i.p. human ovarian tumor xenografts; assay type: in vivo, female nude mice
From the text: Fourteen days following the final Taurolidine injection, mice in all groups were sacrificed and the peritoneal cavity examined for the presence of tumors. Each experimental was repeated three times and the pooled number of animals in each group ranged from 15-21.
Fourteen days following the final Taurolidine injection, mice in all groups were sacrificed, i.p. ovarian tumor xenografts removed and tumor weighed. Each experiment was repeated three times and the pooled number of animals in each group ranged from 15-21. Each bar represents the mean (±SE) tumor weight of 15-21 animals. ***p≦0.001, **** p≦0.0001.
To evaluate therapeutic effectiveness, mice received a single intraperitoneal injection of 5×10^6 SKOV-3 cells in a volume of 0.5 ml. Immediately thereafter, mice were randomly divided into treatment groups of 7 animals. […] Control animals received 1 ml injections of 5% Kollidon 17 PF alone. Animals were examined daily and body weight recorded twice weekly. […] The mean tumor weight for each treatment group was calculated and statistical analysis of differences in the mean tumor weight between treatment groups employed the Student's t-test. p-values of ≦0.05 were considered significant.
Studies next evaluated the antineoplastic activity of this regimen in mice bearing i.p. human ovarian tumor xenografts derived from the SKOV-3 cell line. Mice were injected i.p. with 5×10^6 SKOV-3 cells. […] Fourteen days following the termination of Taurolidine therapy, mice were sacrificed and all i.p. tumors removed and weighed.

[6] = tested on: activated human T-cell cultures; assay: Cytotoxic and apoptotic activity in normal primary cells; assay type: cell-based
From the text: (§1) This observation was confirmed using normal (non-tumor) primary cells derived from animals, which are known to be free of tumors.

[7] = tested on: normal murine bone marrow cultures; assay: as above; assay type: cell-based
From the text: as §1

NIH-3T3 cells = assay: PARP cleavage, Western-blot; assay type: cell-based, murine; details: NIH-3T3, 24 h exposure to 50 or 100 μM
Procedure: Two×10^6 cells were seeded in 150 cm^2 tissue culture flasks. […] After an additional twenty-four hours, cells were harvested, cell number determined, and aliquots derived from equal cell numbers generated from each exposure condition. Total proteins from these whole cell lysates were separated by SDS-PAGE and transferred to nitrocellulose filters. Filters were then immunoblotted to detect intact PARP protein and cleavage fragments by using the clone C-2-10 mouse monoclonal anti-PARP antibody (Zymed Laboratories, San Francisco, Calif.). The resulting protein-antibody complexes were visualized by chemiluminescence techniques.
Western-blot analysis was used to assess of PARP cleavage. Two×10^6 cells were seeded into separate 75 cm^2 tissue culture flasks containing 20 ml of tissue culture media plus serum. […] Twenty-four hours after the addition of Taurolidine, cells were harvested cell number determined, and aliquots containing an equal cell number were generated from each exposure condition. Total proteins from whole cell lysates generated from these aliquots were separated by SDS-PAGE and electrotransferred to nitrocellulose filters. Filters were then processed to detect intact PARP protein and cleavage fragments by using the clone C-2-10 mouse monoclonal anti-PARP antibody (Zymed Laboratories, San Francisco, Calif.). […]

A-549 lung tumor cells = assay: Cell growth inhibition, 3 d exposure, cell counting; assay type: cell-based; details: Homo sapiens, A549, 72 h
Procedure: (§2) One ml of this cell suspension was added to each well of a 12 well cell culture plate that contained 3 ml of appropriate media plus serum. […] Control wells received 40 μl of 5% Kollidon 17 PF alone. Seventy-two hours later, all cells were harvested by trypsinization and cell number determined electronically using a Coulter Model Z1 particle counter (Coulter Corp., Miami, Fla.) to assess cell growth inhibition. Each experiment was performed in duplicate and repeated a minimum of three times.
(§3) Cells were seeded at a density of 1-5×10^4 cells in each well of a 6 well tissue culture flask. […] After three days, cells were harvested by trypsinization and cell number determined electronically. Cell growth inhibition was determined by comparison to non-Taurolidine exposed control cultures. The IC50 was calculated as the concentration required to inhibit cell number by 50%.

H-157 lung tumor cells = assay: as above; assay type: cell-based; details: Homo sapiens, NCI-H157, 72 h
Procedure: as §2, §3

HT-29 colon tumor cells = assay: as above; assay type: cell-based; details: Homo sapiens, 72 h
Procedure: as §2, §3

[8] = tested on: SKOV-3 human ovarian tumor cells; assay: as above; assay type: cell-based; details: SK-OV-3, 72 h, SKOV-3 (ovary)
Procedure: as §2, §3

MNT-1 melanoma cells = assay: as above; assay type: cell-based; details: Homo sapiens, 72 h
Procedure: as §2, §3

[9] = tested on: PA-1 human ovarian tumor cells; assay: as above; assay type: cell-based; details: PA-1 (ovary)
Procedure: as §2, §3

U-251 glioma cells = assay: as above; assay type: cell-based; details: Homo sapiens, 72 h, U-251 (brain)
Procedure: as §2, §3

[10] = tested on: NIH-3T3 murine fibroblasts; assay: as above; assay type: cell-based
Procedure: as §2, §3

[11] = therapy delayed for up to 3 d after tumor cell injection
[12] = therapy initiated on the day of tumor cell injection

Q: With O=S1(=O)CCN(CN2CCS(=O)(=O)NC2)CN1 [Taurolidine, Bis-(1,1-dioxoperhydro-1,2,4-thiadiazinyl-4)methane] as the compound, how does the DNA fragmentation (3T3 cells) read?
A: not apparent

Q: And the “cytotoxic effect against growth of established tumor cells” value [1]?
A: significant cytotoxic effect

Q: What about the “exposure time that induces apoptosis” value [2] of the same compound?
A: 90 min

Q: And the “mortality (%)” value ([3]; 10 mg/mouse/inj)?
A: 6%

Q: And the “mortality (%)” value ([3]; 20 mg/mouse/inj)?
A: 13%

Q: And the “mortality (%)” value ([3]; 25 mg/mouse/inj)?
A: 47%

Q: And the “mortality (%)” value ([3]; 30 mg/mouse/inj)?
A: 100%

Q: What about the tolerability ([3]; daily doses below 15 mg/mouse (~650 mg/kg), 3 d i.p. regimen) of the same compound?
A: well-tolerated

Q: And the MTD ([3]; mouse, in vivo, ip)?
A: 20 mg/inj

Q: What about the “maximally tolerated dose (MTD)” value ([3]; mouse, in vivo, ip) of the same compound?
A: 20 mg/mouse

Q: What about the “reduction in tumor foci” value [4] of the same compound?
A: 75-80%

Q: What about the ascites formation ([5]; 20 mg/mouse/injection x 3 d i.p. from day of tumor cell injection) of the same compound?
A: no evidence of ascites formation

Q: What about the Mean tumor weight ([5]; 20 mg/mouse/injection x 3 d i.p. from day of tumor cell injection, nineteen days after injection) of the same compound?
A: less than 50 mgs

Q: And the “mean tumor size versus controls” value [5, 11]?
A: significantly smaller than in controls

Q: And the “mice tumor free upon sacrifice” value [5, 11]?
A: approximately 10%

Q: And the tumor growth ([5]; therapy initiated 5 d after tumor cell injection (established i.p. tumors))?
A: significantly inhibiting tumor growth

Q: What about the “mean tumor size in treated mice with tumors, smaller than control” value [5, 12] of the same compound?
A: approximately 40 fold

Q: What about the “treated mice with no evidence of disease upon sacrifice” value [5, 12] of the same compound?
A: ~80%

Q: And the cytotoxicity [6]?
A: not cytotoxic in the high μM range

Q: And the “concentrations required to inhibit cell proliferation” value ([7]; normal murine bone marrow)?
A: mM range

Q: What about the cytotoxicity ([7]; normal murine bone marrow cultures) of the same compound?
A: not cytotoxic in the high μM range

Q: And the PARP cleavage (NIH-3T3 cells)?
A: little evidence of this proteolytic event

Q: And the IC50 (A-549 lung tumor cells)?
A: 26.8 ± 7.2 µM

Q: What about the IC50 (H-157 lung tumor cells) of the same compound?
A: 32.2 ± 5.6 µM

Q: And the IC50 (HT-29 colon tumor cells)?
A: 18.6 ± 1 µM

Q: What about the IC50 [8] of the same compound?
A: 31.6 ± 7 µM

Q: And the IC50 (MNT-1 melanoma cells)?
A: 22.1 ± 2.1 µM

Q: What about the IC50 ([9]; Homo sapiens, 72 h) of the same compound?
A: ~10 µM

Q: What about the IC50 [9] of the same compound?
A: 11.4 ± 1.8 µM

Q: What about the IC50 (U-251 glioma cells) of the same compound?
A: 20.1 ± 2.7 µM

Q: And the IC50 [10]?
A: 11.9 ± 1.8 µM

Q: And the IC50 ([10]; Mus musculus, NIH3T3, 72 h)?
A: ~10 µM
